Values joined by “and” are separate entries in the source; they are usually repeats but may differ in a detail not shown here. Identical values can stand only once. “Also recorded” adds a separate entry of the source. Each block holds one compound with its values, some of them ahead of it.
Experiments:
CoCl2 induced CNV [1] = assay: Eye specific angiogenesis ELISA (eZ-CNV ELISA) on isolated eyes; assay type: in vivo, zebrafish; details: co-treatment with 0.1 mg/ml CoCl2 for 4 days, 4 eyes/well
Procedure: Calculation of Drug Effects. To reduce the variability contributed by substrate and to compare results from different assays performed on different days, drug effects were normalized to % inhibition on EC proliferation. Chemiluminescent signal (CU) in each well (containing 4 eyes) was measured and used to calculate drug effect. […] In addition, to estimate non-specific background signal, 24 C were processed without antibody incubation; the mean value of which was subtracted from each CU measurement. Mean CU of D was used as 100% control. Drug effect was calculated following formula (a). %Inhibition=(1−(CU(drug treated)/CU(control)))×100% (a)
Based on the visual assessment above, co-treatment chosen as the treatment method to investigate the effects of the anti-angiogenic drugs Celebrex and Genistein in CoCl2 induced CNV in zebrafish using the eZ-CNV™ ELISA. Drug effects were calculated using the method described in Materials and Methods, infra. […] Based on the dose response curve, the optimal concentration for Celebrex was 20 μM and for Genistein was 0.0001 μM.
Methods for Dissociating Eyes from Whole Zebrafish. Zebrafish were processed for whole mount immunochemical staining with either Alexa 488 or HRP conjugated Phy-V following standard procedures. After extensive washing, stained zebrafish were incubated with 150 U/ml collagenase at 37° C. for 45 minutes; eyes were then dissociated from the whole zebrafish by gentle pipetting.
Eye Specific Angiogenesis ELISA (eZ-CNV™ ELISA). Isolated eyes of whole mount Phy-V-HRP stained zebrafish were placed in 96-well microplates, 4 eyes/well; 150 μl/well PS-atto (Lumigen, Southfield, Mich.), chemiluminescence HRP substrate, was added and the chemiluminescence signal from the enzymatic product was detected by Synergy HT microplate reader (BioTeK Instruments, Inc., Winooski, Vt.).

zebrafish eye (retina) = assay type: in vivo
CoCl2 induced CNV [2] = assay: Effect of anti-angiogenic drugs on CoCl2 induced CNV, visual assessment of Phy-V stained whole zebrafish; assay type: in vivo; details: for Mean ± SE (% CNV) / % CNV (per experiment) / CNV zebrafish (number per experiment): co-treatment with 0.1 mg/ml CoCl2, 24 hpf to 5 dpf; for abnormal neovascularization in the choroidal vessel plexus: co-treatment with CoCl2, 5 dpf zebrafish
Procedure: 24 hpf zebrafish were treated with 0.1 mg/ml CoCl2 continuously for 4 days, and various concentrations of Celebrex or Genistein were incubated with the zebrafish. At the 5 dpf stage, zebrafish were fixed and stained with zebrafish angiogenic-vessel-specific antibody, Phy-V. Several treatment strategies were assessed: (1) pre-treatment (high concentration of drug added for 4 hours and withdrawn before CoCl2 induction); (2) co-treatment (drugs were co-treated with CoCl2); and (3) post-treatment (drugs were added 24 hours after CoCl2).
The drug effects on CNV zebrafish were assessed visually using microscopic examination of Phy-V stained whole zebrafish. % CNV inhibition was calculated by dividing the total number of CNV zebrafish by the total number of zebrafish per experiment (Tables II and III). The percentage of CNV zebrafish was lowest after co-treatment with Celebrex.
Celebrex or Genistein Co-Treatment. Celebrex and Genistein dissolved in DMSO were added directly to fish water, the final concentration of DMSO for Celebrex and Genistein was 0.8%. For pre-treatment, 24 hpf zebrafish were incubated with high concentrations of each drug at 28° C. for 4 hours; the drugs were washed off and zebrafish were treated with 0.1 mg/ml CoCl2. For co-treatment, each drug was added simultaneously with 0.1 mg/ml CoCl2. For post-treatment, each drug was added 24 hours after CoCl2 addition. After drug treatment, zebrafish were washed and processed for whole mount immunochemical staining
Whole Mount Immunofluorescence Staining. Zebrafish were fixed by Dent's fixative (DMSO/methanol=⅓) and processed for whole mount immunochemical staining following standard procedures (Westerfield, 1993, supra). Alexa 488 conjugated Phy-V antibody (Phylonix), which specifically labels activated endothelial cells, was used to stain zebrafish, and followed by examination by fluorescence microscopy.

PEDF = test system: PEDF; parameters: key: ↑: Up arrows indicate up-regulation; ↓: down arrows indicate down-regulation; —: horizontal line indicates no change; details: zebrafish, in vivo
[3] = test system: choroidal neovascularization (CNV) in zebrafish; assay: Hypoxia-induced choroidal neovascularization (CNV) model, Phy-V staining of treated zebrafish; assay type: in vivo
HIF-1α = test system: HIF-1α; parameters: key: ↑: Up arrows indicate up-regulation; ↓: down arrows indicate down-regulation; —: horizontal line indicates no change; details: zebrafish, in vivo
zebrafish = details: in vivo
PGK = test system: PGK; parameters: key: ↑: Up arrows indicate up-regulation; ↓: down arrows indicate down-regulation; —: horizontal line indicates no change; details: zebrafish, in vivo
IGF = test system: IGF; parameters: key: ↑: Up arrows indicate up-regulation; ↓: down arrows indicate down-regulation; —: horizontal line indicates no change; details: zebrafish, in vivo
VEGF = test system: VEGF; parameters: key to VEGF expression (RT-PCR): ↑: Up arrows indicate up-regulation; ↓: down arrows indicate down-regulation; —: horizontal line indicates no change; details: zebrafish, in vivo
[4] = CoCl2 + 20 μM Celebrex-treated 5 dpf zebrafish

effect on eye development (zebrafish eye (retina); [4]): did not delay eye development
Structure (SMILES): Cc1ccc(-c2cc(C(F)(F)F)nn2-c2ccc(S(N)(=O)=O)cc2)cc1 [Celebrex]
dose response in eZ-CNV ELISA (CoCl2 induced CNV [1]): typical dose response curve | optimal concentration based on the dose response curve (CoCl2 induced CNV [1]): 20 µM | retinal structure (zebrafish eye (retina); [4]): normal 5 layer structure with no vessels present in the retina | Mean ± SE (% CNV) (CoCl2 induced CNV [2]; Celebrex 10 μM): 37.0 ± 16.1% | Mean ± SE (% CNV) (CoCl2 induced CNV [2]; Celebrex 15 μM): 22.1 ± 12.4% | % CNV (per experiment) (CoCl2 induced CNV [2]; Celebrex 20 μM): 0% and 10.0% | Mean ± SE (% CNV) (CoCl2 induced CNV [2]; Celebrex 20 μM): 3.3 ± 3.3% | abnormal neovascularization in the choroidal vessel plexus (CoCl2 induced CNV [2]): prevented abnormal neovascularization | inhibition of CoCl2 induced CNV after post-treatment (CoCl2 induced CNV [2]; post-treatment, drug added 24 hours after CoCl2): limited inhibition | CNV after pre-treatment (CoCl2 induced CNV [2]; pre-treatment, high concentration of drug 4 hours, withdrawn before CoCl2 induction): low percentage of CNV zebrafish, however, the CNV defects were severe

Structure (SMILES): [Cl-].[Cl-].[Co+2] [CoCl2]
retinal structure / vessels in the retina (zebrafish eye (retina); zebrafish, in vivo): abnormal vessels formed in the retina; also recorded: abnormal retinal structure | PEDF expression (RT-PCR) (PEDF): — | frequency or severity of CNV ([3]; zebrafish, in vivo): did not increase the frequency or severity of CNV | number of treated zebrafish exhibiting CNV specific phenotype ([3]; zebrafish, in vivo): 64 | treated zebrafish exhibiting CNV specific phenotype ([3]; zebrafish, in vivo): 63.6±11.1% | vessel growth ([3]; zebrafish, in vivo): did not stimulate vessel growth | HIF-1α expression (RT-PCR) (HIF-1α): ↑ and ↓ and — | lethality (zebrafish): instantaneous death | zebrafish dying (zebrafish): 100% | PGK expression (RT-PCR) (PGK): — | IGF expression (RT-PCR) (IGF): — | VEGF expression (RT-PCR) (VEGF): — and ↑ | VEGF expression (RT-PCR), in words (VEGF): Up-regulation

Structure (SMILES): O=c1c(-c2ccc(O)cc2)coc2cc(O)cc(O)c12 [Genistein]
dose response in eZ-CNV ELISA (CoCl2 induced CNV [1]): only showed preventative effects at a low concentration | optimal concentration based on the dose response curve (CoCl2 induced CNV [1]): 0.0001 µM | Mean ± SE (% CNV) (CoCl2 induced CNV [2]; Genistein 0.0001 μM): 20.8% | % CNV (per experiment) (CoCl2 induced CNV [2]; Genistein 0.001 μM): 36.8% and 39.1% | CNV zebrafish (number per experiment) (CoCl2 induced CNV [2]; Genistein 0.001 μM): 7 and 9 | Mean ± SE (% CNV) (CoCl2 induced CNV [2]; Genistein 0.001 μM): 38.0% | % CNV (per experiment) (CoCl2 induced CNV [2]; Genistein 0.01 μM): 23.5% | CNV zebrafish (number per experiment) (CoCl2 induced CNV [2]; Genistein 0.01 μM): 4 | Mean ± SE (% CNV) (CoCl2 induced CNV [2]; Genistein 0.01 μM): 23.5% | abnormal neovascularization in the choroidal vessel plexus (CoCl2 induced CNV [2]): prevented abnormal neovascularization

Structure (SMILES): CC(C)(S)[C@@H](N)C(=O)O [Penicillamine]
CNV ([3]; 0.01 μM Penicillamine from 24 hpf, at 5 dpf): CNV was observed | angiogenesis ([3]; 0.01 μM Penicillamine treatment at the 24 hpf stage): stimulated angiogenesis throughout the zebrafish | zebrafish developing CNV compared with CoCl2 treatment ([3]; Penicillamine treatment): Fewer zebrafish developed CNV
